Laboratory results reported in patent US20230158036A1, “MEDICAMENT FOR THE TREATMENT OF PAIN” (Shionogi & Co., Ltd., priority 2020, published 2023).

Experiments:
[1] = test system: knee osteoarthritis patients; details: 300 mg twice daily oral, after 4 weeks; NPRS before administration 6.8; cited from earlier work
[2] = test system: patients of interstitial cystitis/bladder pain syndrome; details: twice daily oral, gradually increased from 50 mg to 300 mg, after 4 weeks; NPRS before administration 6.2; cited from earlier work
[3] = biological target: T1, rat P2X3 receptor (Rattus norvegicus, UniProt P49654); test: Evaluation of rat P2X3 receptor inhibitory activity in the presence of rat serum albumin (Test Example 4); type: cell-based
T1 construct: expressed in transfected cells; host or cells: C6BU-1 cells (stably expressing line)
T1 sequence (P49654 1-397): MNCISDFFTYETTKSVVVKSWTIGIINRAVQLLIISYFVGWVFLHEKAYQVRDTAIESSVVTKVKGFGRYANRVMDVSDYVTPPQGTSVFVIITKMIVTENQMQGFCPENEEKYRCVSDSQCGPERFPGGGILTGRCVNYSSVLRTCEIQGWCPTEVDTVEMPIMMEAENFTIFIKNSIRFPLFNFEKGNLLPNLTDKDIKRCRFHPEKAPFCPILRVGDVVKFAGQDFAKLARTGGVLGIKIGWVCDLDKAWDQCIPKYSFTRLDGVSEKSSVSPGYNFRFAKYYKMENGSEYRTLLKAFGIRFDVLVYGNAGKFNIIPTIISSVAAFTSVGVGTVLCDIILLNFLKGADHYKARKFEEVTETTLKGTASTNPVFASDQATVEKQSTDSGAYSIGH
Description: (Test Example 4) Evaluation of Rat P2X3 Receptor Inhibitory Activity in the Presence of Rat Serum Albumin (RSA)

[4] = test system: partial sciatic nerve ligation model in rats; test: Drug efficacy in Seltzer model (partial sciatic nerve ligation, von Frey tactile allodynia; Test Example 5); type: in vivo; details: rat, 10 mg/kg oral, 3 hours after administration, two weeks after operation
Description: (Test Example 5) Assessment of Drug Efficacy in Seltzer Model
Partial Sciatic Nerve Ligation Model in Rats
Each rat was anesthetized with isoflurane and the hair of the left thigh was shaved. An incision was made in the skin just below the hip bone. The muscle was bluntly dissected to expose the sciatic nerve. ⅓ to ½ of the sciatic nerve was strongly ligated with a thread, and the muscle and the skin were sutured. This is referred to as a nerve ligated side. The right thigh underwent an identical procedure with the left hind limb except for the ligation of the sciatic nerve. This is referred to as a sham operated side.
Two weeks after the operation, the effect on tactile allodynia was assessed using von Frey filaments. Two weeks after the operation, for habituation, the rats were placed into a plastic cage on a wire mesh bottom. […] Pain thresholds were measured for the left and right hind limbs and these were used as pre-treatment pain thresholds. […] Pain thresholds were measured for the right and left hind limbs at 3 hours after the drug administration, and these were used as post-treatment pain thresholds. A percent reversal value for each rat was calculated using the following formula. […]

[5] = test system: rat diabetic neuropathic pain model; test: Drug efficacy in diabetic neuropathic pain model (STZ, Randall-Selitto; Test Example 6); type: in vivo; details: 10 mg/kg oral, 3 hours after administration
Experimental: (Test Example 6) Assessment of Drug Efficacy in Diabetic Neuropathic Pain Model
Preparation of Rat Diabetic Neuropathic Pain Model
To overnight fasted rats, […] of streptozotocin (STZ) was intravenously administered to prepare a diabetes model. As a control, rats to which saline was administered were also prepared.
(§1) Two weeks after the administration of STZ, the analgesic effect of the compound represented by Formula (I) was evaluated by the Randall-Selitto method. […] On the day of the test, the pain threshold before the administration of the compound represented by Formula (I) was measured, and then after the administration of the test substance, the pain threshold was measured. The compound represented by Formula (I) was homogenized with mortar and pestle and suspended in 0.5% Methyl Cellulose to prepare a suspension, and it was orally administered at 10 mg/kg to the animals using a syringe attached with a sonde. Pain thresholds were measured for the hind limbs at 3 hours after the administration of the test substance, and these were used as post-administration pain thresholds. A percent reversal value for each rat was calculated using the following formula. The analgesic effects of the compound were compared.
% Reversal value=(post-administration pain threshold−pre-administration pain threshold)/(pain threshold of saline-administered rat−pre-administration pain threshold)×100

[6] = test system: rat knee osteoarthritis model; test: Drug efficacy in knee osteoarthritis pain model (MIA, hind limb load distribution; Test Example 7); type: in vivo; details: 10 mg/kg oral, 3 hours after administration
Experimental: (Test Example 7) Assessment of Drug Efficacy in Knee Osteoarthritis Pain Model
Preparation of Rat Knee Osteoarthritis Model
Under isoflurane anesthesia, a knee joint on one side was shaved, and a monoiode sodium acetate (MIA) solution (saline solution, up to 5 mg/50 μL/rat) was intraarticularly administered.
Two weeks after the MIA administration, the analgesic effect of the compound represented by Formula (I) was evaluated. This test was based on a system for measuring a load distribution applied to hind limbs of a rat, and a ratio of load differences between left and right hind limbs was used as a pain threshold. On the day of the test, the pain threshold before the administration of the compound represented by Formula (I) was measured, and then after the administration of the test substance, the pain threshold was measured. […] Pain thresholds were measured for the hind limbs at 3 hours after the administration of the test substance, and these were used as post-administration pain thresholds. The load difference was measured up to three times, and the average value thereof was used as the pain threshold.
A percent reversal value for each rat was calculated using the following formula. […]

[7] = test system: rat inflammatory pain model; test: Drug efficacy in inflammatory pain model (FCA, Randall-Selitto; Test Example 8); type: in vivo; details: 10 mg/kg oral, 1 hour after administration
Experimental: (Test Example 8) Assessment of Drug Efficacy in Inflammatory Pain Model
Preparation of Rat Inflammatory Pain Model
Under isoflurane anesthesia, FCA (12.5-100 μg) was subcutaneously injected into the hind limb of a rat to prepare an inflammatory pain model.
as §1, with “FCA,” for “STZ,”, “1 hour” for “3 hours”
% Reversal value=(post-administration pain threshold−pre-administration pain threshold)/(pain threshold of hind limb on FCA-non-administered side−pre-administration pain threshold)×100

[8] = test system: mouse bladder pain model; test: Drug efficacy in cystitis pain model (cyclophosphamide, automatic von Frey; Test Example 9); type: in vivo; details: 3 mg/kg oral, 1 hour after administration
Experimental: (Test Example 9) Assessment of Drug Efficacy in Cystitis Pain Model
Preparation of Mouse Bladder Pain Model
Cyclophosphamide was dissolved in physiological saline or the like, and the solution was intraperitoneally administered to mice. Cyclophosphamide was administered at 150 mg/kg once daily consecutively for four days. As a control, mice to which saline was administered were also prepared.
The analgesic effect of the compound represented by Formula (I) was evaluated the day after the final administration of cyclophosphamide. In this test, mechanical stimulation by an automatic von Frey device was applied to the periphery of the lower abdomen while holding the mouse, and with respect to the resulting escape behavior defined as pain-like behavior, the pain threshold was determined. On the day of the test, the pain threshold before the administration (pre-administration pain threshold) of the compound represented by Formula (I) was measured, and then after the administration of the test substance, the pain threshold was measured. […] Pain thresholds were measured at 1 hour after the administration of the test substance, and these were used as post-administration pain thresholds. A percent reversal value for each rat was calculated using the following formula. […]

[9] = test system: mouse bone cancer pain model; test: Drug efficacy in mouse bone cancer pain model (NCTC2472 cells in femur, von Frey; Test Example 10); type: in vivo; details: 10 mg/kg oral, two weeks after operation
Description: (Test Example 10) Assessment of Drug Efficacy in Mouse Bone Cancer Pain Model
Preparation of Mouse Bone Cancer Pain Model
The skin was incised under isoflurane anesthesia, the muscles were torn to expose the left femur, a hole was made in the bone marrow cavity using a 26 G needle, and tumor cells (NCTC2472 cells derived from C3H/HeN mice) were transplanted using a 30 G needle. The hole made in the femoral bone marrow cavity was closed with dental cement, and then the skin was sutured. Mice in sham-operated groups were prepared by administering HBSS instead of tumor cells.
Two weeks after the operation, the effect on tactile allodynia was assessed using von Frey filaments. Two weeks after the operation, for habituation, the mice were placed into a plastic cage on a wire mesh bottom. […] The pain threshold was evaluated for the operated hind limb and defined as a pre-administration pain threshold, and the compound represented by the formula (I) was administered to the animal at 10 mg/kg. […] Pain thresholds were measured for the operated hind limbs after the administration of the test substance, and these were used as post-administration pain thresholds. A percent reversal value for each rat was calculated using the following formula. […]

[10] = test system: acetic acid-induced urination disorder model; test: Drug efficacy in acetic acid-induced urination disorder model (Test Example 11); type: in vivo; details: rat, 3 mg/kg oral
Experimental: (Test Example 11) Assessment of Drug Efficacy in Acetic Acid-Induced Urination Disorder Model
Preparation of acetic acid-induced urination disorder model
A catheter was placed in a rat bladder under isoflurane anesthesia. After 2 days from the surgery for placing the catheter, 0.3% acetic acid was administered at 4 mL/hr over 30 minutes to induce cystitis. In this model, the amount of urine per urinating action and the voiding interval decreased.
On the day after acetic acid was administered, the amount of urine per urinating action and the voiding interval before drug administration were evaluated. The compound represented by Formula (I) was homogenized with mortar and pestle and suspended in 0.5% Methyl Cellulose to prepare a suspension, and it was orally administered at 0.1 mg/kg, 0.75 mg/kg, or 3 mg/kg to the rats using a syringe attached with a sonde. The amount of urine per urinating action and the voiding interval during a period from 30 minutes to 150 minutes after administration were measured. The value before administration for each individual was assumed to be 100%, and the change rate after administration was calculated.
Rate of change in amount of voided urine per urinating action=(amount of urine per urinating action after drug treatment of cystitis rat[…]amount of voided urine per urinating action before drug treatment of cystitis rat)×100
Rate of change in voiding interval=(voiding interval after drug treatment of cystitis rat[…]voiding interval before drug treatment of cystitis rat)×100

[11] = 30 to 150 minutes after administration, value before administration = 100%

Row | SMILES | Numeric pain rating scale (NPRS) after administration [1] | Numeric pain rating scale (NPRS) after administration [2] | IC50 [3] | Percent reversal value (pain threshold, von Frey) [4] | Percent reversal value (pain threshold, Randall-Selitto) [5] | Percent reversal value (load difference between left and right hind limbs) [6] | Percent reversal value (pain threshold, Randall-Selitto) [7] | Percent reversal value (lower abdomen pain threshold, automatic von Frey) [8] | Percent reversal value (pain threshold, von Frey) [9] | Rate of change in amount of voided urine per urinating action [10, 11] | Rate of change in voiding interval [10, 11] | Effect on voiding interval and amount of voided urine (FIGS. 1 and 2), in words ([10]; p<0.05 vs vehicle (Dunnett))
1 | COc1cc(C(C)C)c(Oc2cnc(N)nc2N)cc1S(N)(=O)=O [Gefapixant] | 4.9 | 3.3 |  |  |  |  |  |  |  |  |  | 
2 | C[C@@H](Cn1c(=O)[nH]/c(=N\c2ccc(Oc3ccccn3)cc2)n(Cc2ccc(Cl)cc2)c1=O)C(=O)O [compound represented by Formula (I), (2S)-3-(3-[(4-chlorophenyl)methyl]-2,6-dioxo-4-([4-(pyridin-2-yloxy)phenyl]amino)-3,6-dihydro-1,3,5-triazin-1(2H)-yl)-2-methyl-propanoic acid] |  |  | 0.01 µM | 65% | 55% | 51% | 58% | 46% | 55% | 208.4% | 219.0% | significant improving effect
